Test results published in patent US3948911A, “Substituted quinoxaline-2-carboxamide 1,4-dioxides” (Pfizer Inc., priority 1974, dated 1976).
Converted amounts (≈) assume the structure as drawn. Where two headings read alike, the source gives them in different places.

Legend:
Strep. pyogenes [1] = test: in vitro antibacterial activity, two-fold serial dilution in Brain-Heart Infusion Broth, MIC; assay type: cell-based; details: overnight, anaerobic; for MIC: Streptococcus pyogenes
Method: (§1) The broth is inoculated with bacteria and with the test quinoxaline-1,4-dioxide and then it is incubated overnight under anerobic conditions. On the next day, the test is read visually. The minimum inhibitory concentration (MIC) of the test compound is the lowest concentration which prevents turbidity, i.e., which prevents growth of the microorganism.
(§2) In vitro and in vivo activity of representative compounds of this invention, determined as aforesaid, are reported in the following tabulation for compounds of the formula: ##SPC3##

E. coli [2] = test: as above; assay type: cell-based; details: for MIC: Escherichia coli, read-out: IN VITRO MIC E. coli
Method: as §1, §2

Strep. pyogenes [3] = test: in vivo activity in mice infected with a lethal inoculum, survivors; details: for IN VIVO Survivors (PO) Strep. pyogenes / IN VIVO Survivors-SC Strep. pyogenes / responders at 50 mg/kg: 50 mg./kg., survivors/treated mice; for responders at 100 mg/kg / responders at 50 mg/kg: Streptococcus pyogenes; for responders at 100 mg/kg: footnote (c): dosage = 100 mg./kg.
Method: (§3) In determining in vivo activity of the quinoxaline-1,4-dioxides of this invention, the test compound is administered to mice which have been infected by […] injection of a lethal inoculum of pathogenic bacteria. The test compound is administered using a multiple dosing regimen and using either the oral (PO) or the subcutaneous (SC) route. The inoculum of bacteria varies from about 1 to about 10 times the amount needed to kill 100% of the mice under the conditions of the test. At the end of the test, the activity of the compound is assessed by counting the number of survivors among the treated animals.
as §2

E. coli [4] = test: as above; details: for IN VIVO Survivors-SC E. coli / responders at 25 mg/kg: subcutaneous; for IN VIVO Survivors-SC E. coli / responders at 25 mg/kg / IN VIVO Survivors (PO) E. coli: 25 mg./kg., survivors/treated mice
Method: as §3, §2

[5] = Brain-Heart Infusion Broth, overnight, anaerobic
[6] = sc, subcutaneous, read-out: IN VIVO Survivors-SC Strep. pyogenes (converted)
[7] = oral, read-out: IN VIVO Survivors (PO) Strep. pyogenes (converted)

| Compound | IN VITRO MIC Strep. pyogenes (Strep. pyogenes [1]) | IN VITRO MIC E. coli (E. coli [2]; [5]) | IN VIVO Survivors (PO) Strep. pyogenes (Strep. pyogenes [3]; oral) | IN VIVO Survivors-SC Strep. pyogenes (Strep. pyogenes [3]; subcutaneous) | IN VIVO Survivors-SC E. coli (E. coli [4]) | MIC (Strep. pyogenes [1]) | MIC (E. coli [2]) | responders at 100 mg/kg (Strep. pyogenes [3]; sc, subcutaneous, read-out: IN VIVO Survivors-SC Strep. pyogenes) | responders at 100 mg/kg (Strep. pyogenes [3]; oral, read-out: IN VIVO Survivors (PO) Strep. pyogenes) | responders at 25 mg/kg (E. coli [4]; Escherichia coli, sc) | IN VIVO Survivors (PO) E. coli (E. coli [4]) | MIC (E. coli [2]; [5]) | responders at 50 mg/kg (Strep. pyogenes [3]; [6]) | responders at 50 mg/kg (Strep. pyogenes [3]; [7]) | responders at 100 mg/kg (E. coli [4]; Escherichia coli, sc, read-out: IN VIVO Survivors-SC E. coli) |
| --- | --- | --- | --- | --- | --- | --- | --- | --- | --- | --- | --- | --- | --- | --- | --- |
| 6-(7)-Formyl-N-(2-Hydroxyethyl)-3-Methyl-2-Quinoxalinecarboxamide 1,4-Dioxide Ethylene Acetal [NHCH2 CH2 OH 6(7)-OO.angle.C.angle.H CH3] | 0.781 µg/mL | 25 µg/mL | 3/10 | 2/10 | 3/10 |  |  |  |  |  |  |  |  |  |  |
| CC(=O)c1ccc2c(c1)[n+]([O-])c(C)c(C(=O)N(C)C)[n+]2[O-] [N(CH3)2 6-COCH3 CH3] |  |  |  |  |  | 6.25 µg/mL (≈ 21.6 µM) | 6.25 µg/mL (≈ 21.6 µM) | 60% | 50% | 20% | 0/5 |  |  |  |  |
| CC(=O)c1ccc2c(c1)[n+]([O-])c(C(=O)N(C)C)c(C)[n+]2[O-] [N(CH3)2 7-COCH3 CH3] |  |  |  |  |  | 6.25 µg/mL (≈ 21.6 µM) |  |  |  | 0% |  | 6.25 µg/mL (≈ 21.6 µM) | 60% | 20% |  |
| CC(=O)c1ccc2c(c1)[n+]([O-])c(C)c(C(N)=O)[n+]2[O-] [NH2 6-COCH3 CH3, 6- and 7-Acetyl-3-Methyl-2-Quinoxalinecarboxamide 1,4-dioxide] |  |  |  |  |  | < 0.391 µg/mL |  |  |  | 100% | 5/5 | < 0.391 µg/mL | 100% | 90% |  |
| CC(=O)c1ccc2c(c1)[n+]([O-])c(C(N)=O)c(C)[n+]2[O-] [NH2 7-COCH3 CH3, 6- and 7-Acetyl-3-Methyl-2-Quinoxalinecarboxamide 1,4-dioxide] |  |  |  |  |  | 0.391 µg/mL (≈ 1.5 µM) |  |  |  | 100% |  | < 0.391 µg/mL | 100% | 80% |  |
| Cc1c(C(N)=O)[n+]([O-])c2cc(C3(C)OCCO3)ccc2[n+]1[O-] [NH2 7-OO.angle.C.angle.CH3 CH3] |  |  |  |  |  | 12.5 µg/mL (≈ 40.9 µM) |  |  |  | 100% | 3/5 | 12.5 µg/mL (≈ 40.9 µM) | 80% | 80% |  |
| CC(=O)c1ccc2c(c1)[n+]([O-])c(C)c(C(=O)NCCO)[n+]2[O-] [NHCH2 CH2 OH 6-COCH3 CH3] |  |  |  |  |  | < 0.391 µg/mL |  |  |  |  |  | < 0.391 µg/mL | 50% | 20% | 30% |
| CNC(=O)c1c(C)[n+]([O-])c2cc(C(C)=O)ccc2[n+]1[O-] [NHCH3 6-COCH3 CH3] |  |  |  |  |  | 0.781 µg/mL (≈ 2.84 µM) |  |  |  | 80% | 7/10 | < 0.391 µg/mL | 60% | 40% |  |
| CNC(=O)c1c(C)[n+]([O-])c2ccc(CO)cc2[n+]1[O-] [NHCH3 7-CH2 OH CH3] |  |  |  |  |  | > 200 µg/mL |  |  |  | 90% |  | 6.25 µg/mL (≈ 23.7 µM) | 20% | 10% |  |
| CNC(=O)c1c(C)[n+]([O-])c2ccc(C(C)=O)cc2[n+]1[O-] [NHCH3 7-COCH3 CH3] |  |  |  |  |  | 0.391 µg/mL (≈ 1.42 µM) |  |  |  | 60% |  | 0.391 µg/mL (≈ 1.42 µM) | 50% | 90% |  |
| Ethyl 6(7)-Hydroxymethyl-3-Methyl-2-Quinoxaline-Carboxylate 1,4-Dioxide [OCH2 CH3 6(7)-CH2 OH CH3] | 25 µg/mL | 25 µg/mL | 5/10 | 6/10 | 4/10 |  |  |  |  |  |  |  |  |  |  |
| N,3-Dimethyl-6(7)-Hydroxymethyl-2-Quinoxalinecarboxamide 1,4-Dioxide [NHCH3 6(7)-CH2 OH CH3] | 50 µg/mL | 25 µg/mL | 3/10 | 3/10 | 8/10 |  |  |  |  |  |  |  |  |  |  |
| N-Methyl-6(7)-Hydroxymethyl-2-Quinoxalinecarboxamide 1,4-Dioxide [NHCH3 6(7)-CH2 OH H] | 0.781 µg/mL | 1.562 µg/mL | 6/10 | 10/10 | 4/10 |  |  |  |  |  |  |  |  |  |  |
